Patent US20250241948A1, “Engineered Extracellular Vesicle Delivery Systems and Uses Thereof” (The Texas A&M University System, priority 2020, published 2025)

Legend:
Assay type in all cases: cell-based, human
[1] = test system: GFP-expressing A549 cells; test: siRNA-mediated GFP knockdown; settings: lipid-siRNA complexes following electroporation, no EV
Method: Quantification of siRNA knockdown in A549 cells: To evaluate the knockdown efficiency of EV-mediated siRNA delivery within the constitutively expressing-GFP-A549 cells over time, GFP fluorescence was measured and quantified using a plate reader (Cytation 5) every day for 12 days (34). To ensure the decrease of green fluorescence intensity is due to the RNA interference of GFP-siRNA in the cells and not caused by the cytotoxicity of the delivery system, each sample type or condition was delivered with scrambled siRNA as a control. The knockdown efficiency was calculated using the below equation: […]
where Fsi is the fluorescence of the well using GFP-siRNA, Fsc is the fluorescence of the well using corresponding scrambled siRNA, Fbg is the fluorescence background of the media without cells, Fosi is the initial fluorescence of the well just prior to delivery for the GFP-siRNA formulations and Fosc is the initial fluorescence of the well prior to delivery of the corresponding scrambled siRNA control group. Commercial Lipofectamine® RNAiMax formulation was used as a positive control to compare the knockdown efficiency between samples. The formulation was prepared according to the manufacturer's instruction. Briefly, 0.3 μl of Lipofectamine® RNAiMax was used to deliver 1 pmol of siRNA. […] Area under the curve (knockdown efficiency vs time) was calculated to determine the difference in duration using GraphPad Prism 7 software.
siRNA knockdown efficiency: To evaluate the knockdown efficiency of LbL-EV mediated siRNA delivery within GFP-expressing A549 cells, GFP fluorescence was measured and quantified using the same apparatus (Cytation 5) every day as previously described (34, 63). The knockdown efficiency of siRNA-GFP was calculated by normalizing each sample type/condition to each individual negative control treated with scrambled siRNA. […] Area under the curve (knockdown efficiency vs time) was calculated by GraphPad Prism 7 software to determine the overall knockdown efficiency of each condition. […]

A549 cells = test: DOX cancer killing efficiency (MTS assay); settings: A549, 3 days incubation
Method: (§1) DOX cancer killing efficiency: The effects of DOX-loaded vesicles on A549/CCL210 cells were done by CellTiter 96® Aqueous Cell Proliferation assay (Promega) (MTS assay) to assess relative metabolic activity of the cells. Prior to MTS treatment, DOX-loaded vesicles were incubated with cultured A549/CCL210 cells at 60-70% confluency for 3 days at varying doses. The MTS assays were conducted after incubation for 3 days, following the manufacturer's instructions. Untreated A549 or CCL210 cells were used as positive control groups (assuming 100% metabolic activity) for normalization. Free DOX (unencapsulated) and DOX-loaded PLGA NPs were prepared as comparison groups. To obtain dose-response curves, metabolic activity was plotted versus the amount of DOX administered, which was determined based on spectrophotometric analysis of eEV/LbL-eEV/PLGA NPs. The sigmoidal dose-response curves were fitted with Hill's equation using GraphPad software: […]
(§2) where Max is the Y value at the top plateau and Min is the Y value at the bottom plateau. IC50 (inhibitory concentration, 50%) is the X value when the response is halfway between Min and Max.

CCL-210 cells = test: DOX cancer killing efficiency (MTS assay); settings: CCL210, 3 days incubation
Method: as §1, §2

## CCCCCCCCCCCCCCCC(=O)OC[C@H](COP(=O)([O-])OCC[N+](C)(C)C)OC(=O)CCCCCCCCCCCCCCC [DPPC, 1,2-dipalmitoyl-sn-glycero-3-phosphocholine]
[1]
  GFP down-regulation by lipid-siRNA complexes: not able to down-regulate GFP expression

## COc1cccc2c1C(=O)c1c(O)c3c(c(O)c1C2=O)C[C@@](O)(C(=O)CO)C[C@@H]3O[C@H]1C[C@H](N)[C@H](O)[C@H](C)O1 [Free DOX, doxorubicin]
A549 cells
  IC10 of DOX: 0.510 μ/ml
  IC90 of DOX: 0.690 μ/ml
CCL-210 cells
  IC10 of DOX: 0.200 μ/ml
  IC50 of DOX: 0.400 ± 0.024 μ/ml
  IC90 of DOX: 0.780 μ/ml

## CCCCCCCC/C=C\CCCCCCCC(=O)O[C@H](COC(=O)CCCCCCCCCCCCCCC)COP(=O)([O-])OCC[N+](C)(C)C [POPC, 1-Palmitoyl-2-oleoyl-sn-glycero-3-phosphocholine]
[1]
  GFP down-regulation by lipid-siRNA complexes: not able to down-regulate GFP expression

## CCCCCCCC/C=C\CCCCCCCC(=O)O[C@H](COC(=O)CCCCCCCCCCCCCCC)COP(=O)(O)OCC(O)CO (some centres unmarked) [POPG, 1-Palmitoyl-2-oleoyl-sn-glycero-3-phosphoglycerol]
[1]
  GFP down-regulation by lipid-siRNA complexes: not able to down-regulate GFP expression
